Test results: patent publication US20250376458A1, “COMPOUNDS AND METHODS FOR YAP/TEAD MODULATION AND INDICATIONS THEREFOR” (OPNA BIO SA, priority 2023, published 2025)
Like-named read-outs stand apart in the source and are kept apart here.

System: TEAD-dependent transcription
Assay: TEAD-dependent transcription cell-based luciferase reporter assay (MSTO-211H+12XGTIIC)
Design: species or system human
Conditions: MSTO-211H+12XGTIIC cell line, 24 hours compound incubation, luminescence normalized to cell viability fluorescence signal, read-out: MSTO-211H GMean IC50 (uM) Cell Assay Reporter Cell Variant: TEAD
Text: Determine Inhibitor Activity Against TEAD-Dependent Transcription in a Cell-Based Reporter Assay
The human mesothelioma cell line MSTO-211H was stably transfected with a pGL4.21 plasmid containing a synthetic promoter with 12 copies of the GTIIC TEAD response element that drives the expression of a luciferase reporter gene i using Lipofectamine transfection reagent (Thermo Fisher). Transfected cells were selected using puromycin and single cell clones expressing this construct (referred to as MSTO-211H+12XGTIIC) were generated by limiting dilution. MSTO-211H cells was characterized by genetic alterations in key components of the Hippo pathway^2, resulting in up-regulation of YAP/TEAD-mediated transcription. […] To evaluate TEAD inhibitors, the MSTO-211H+12XGTIIC cell line was seeded in a 96-well plate in 50 μL of culture media at 1×10^4 cells per well and incubated at 37° C. overnight. Serial dilutions of compounds (in total volume of 50 μL of culture media) were added to the cells and incubated at 37° C. for 24 hours. Each plate included cells treated with DMSO as high controls and cells treated with 20 μM of the reference compound K-975 (a known TEAD inhibitor)^3 as low controls. Cell viability was assayed by the addition of 25 μL of CellTiter-Fluor reagent (Promega) followed by a 30-minute incubation at 37° C. and quantification of the fluorescence signal (Ex400/Em505). Subsequently, luciferase expression was assayed by the addition of 25 μL of ONE-Glo reagent (Promega) followed by a 10-minute incubation at room temperature and quantification of the luminescence signal. The luminescence signal was normalized to the fluorescence signal to correct for any loss in cell viability over the 24-hour compound incubation period. The percentage of inhibition of normalized luminescence signal, indicative of compound-mediated inhibition of TEAD-dependent transcription, at individual compound concentrations relative to high and low controls was calculated. The data were analyzed by using nonlinear regression to generate IC50 values for individual compounds.

CCCS(=O)(=O)c1nc(C(=O)N2CCc3c(cccc3Oc3ccc(C(F)(F)F)cc3)C2)c[nH]1 [O-0019, (2-(propylsulfonyl)-1H-imidazol-4-yl)(5-(4-(trifluoromethyl)phenoxy)-3,4-dihydroisoquinolin-2(1H)-yl)methanone]
IC50 (Homo sapiens, MSTO-211H, 24 h): 0.001 to 10 µM

CS(=O)(=O)c1nc(C(=O)N2CCc3cc(Oc4ccc(C(F)(F)F)cc4)ccc3C2)c[nH]1 [O-0073, (2-(methylsulfonyl)-1H-imidazol-4-yl)(6-(4-(trifluoromethyl)phenoxy)-3,4-dihydroisoquinolin-2(1H)-yl)methanone]
IC50 (Homo sapiens, MSTO-211H, 24 h): 10 to 100 µM

CS(=O)(=O)c1nc(C(=O)N2CCc3c(cccc3Nc3ccc(C(F)(F)F)nc3)C2)c[nH]1 [O-0009, (2-(methylsulfonyl)-1H-imidazol-4-yl)(5-((6-(trifluoromethyl)pyridin-3-yl)amino)-3,4-dihydroisoquinolin-2(1H)-yl)methanone]
IC50 (Homo sapiens, MSTO-211H, 24 h): 10 to 100 µM

CCCS(=O)(=O)c1nc(C(=O)N2CCc3c(cccc3Nc3ccc(C(F)(F)F)c(F)c3)C2)c[nH]1 [O-0026, (5-((3-fluoro-4-(trifluoromethyl)phenyl)amino)-3,4-dihydroisoquinolin-2(1H)-yl)(2-(propylsulfonyl)-1H-imidazol-4-yl)methanone]
IC50 (Homo sapiens, MSTO-211H, 24 h): 0.001 to 10 µM

CS(=O)(=O)c1nc(C(=O)N2CCc3c(cccc3Nc3ccc(C(F)(F)F)cn3)C2)c[nH]1 [O-0003, (2-(methylsulfonyl)-1H-imidazol-4-yl)(5-((5-(trifluoromethyl)pyridin-2-yl)amino)-3,4-dihydroisoquinolin-2(1H)-yl)methanone]
IC50 (Homo sapiens, MSTO-211H, 24 h): 0.001 to 10 µM

CCS(=O)(=O)c1nc(C(=O)N2CCc3c(cccc3Nc3ccc(C(F)(F)F)c(F)c3)C2)c[nH]1 [O-0025, (2-(ethylsulfonyl)-1H-imidazol-4-yl)(5-((3-fluoro-4-(trifluoromethyl)phenyl)amino)-3,4-dihydroisoquinolin-2(1H)-yl)methanone]
IC50 (Homo sapiens, MSTO-211H, 24 h): > 100 µM

CS(=O)(=O)c1nc(C(=O)N2CCc3c(cccc3NC3CCC(F)(F)CC3)C2)c[nH]1 [O-0124, (5-((4,4-difluorocyclohexyl)amino)-3,4-dihydroisoquinolin-2(1H)-yl)(2-(methylsulfonyl)-1H-imidazol-4-yl)methanone]
IC50 (Homo sapiens, MSTO-211H, 24 h): > 100 µM

CS(=O)(=O)c1nc(C(=O)N2CCc3ccc(Nc4ccc(C(F)(F)F)c(F)c4)cc3C2)c[nH]1 [O-0121, (7-((3-fluoro-4-(trifluoromethyl)phenyl)amino)-3,4-dihydroisoquinolin-2(1H)-yl)(2-(methylsulfonyl)-1H-imidazol-4-yl)methanone]
IC50: 0.001 to 10 µM

CCS(=O)(=O)c1nc(C(=O)N2CCc3cc(Oc4ccc(C(F)(F)F)cc4)ccc3C2)c[nH]1 [O-0079, (2-(ethylsulfonyl)-1H-imidazol-4-yl)(6-(4-(trifluoromethyl)phenoxy)-3,4-dihydroisoquinolin-2(1H)-yl)methanone]
IC50 (Homo sapiens, MSTO-211H, 24 h): 0.001 to 10 µM

CS(=O)(=O)c1nc(C(=O)N2CCc3cc(Oc4ccc(C(F)(F)F)cc4F)ccc3C2)c[nH]1 [O-0075, (6-(2-fluoro-4-(trifluoromethyl)phenoxy)-3,4-dihydroisoquinolin-2(1H)-yl)(2-(methylsulfonyl)-1H-imidazol-4-yl)methanone]
IC50 (Homo sapiens, MSTO-211H, 24 h): 0.001 to 10 µM

CS(=O)(=O)c1nc(C(=O)N2CCc3c(ncnc3Oc3ccc(C(F)(F)F)c(F)c3)C2)c[nH]1 [O-0115, (4-(3-fluoro-4-(trifluoromethyl)phenoxy)-5,8-dihydropyrido[3,4-d]pyrimidin-7(6H)-yl)(2-(methylsulfonyl)-1H-imidazol-4-yl)methanone]
IC50: 0.001 to 10 µM

CS(=O)(=O)c1nc(C(=O)N2CCc3ccc(Nc4ccc(C(F)(F)F)c(F)c4)cc3C2)c[nH]1 [O-0018, (7-((3-fluoro-4-(trifluoromethyl)phenyl)amino)-3,4-dihydroisoquinolin-2(1H)-yl)(2-(methylsulfonyl)-1H-imidazol-4-yl)methanone]
IC50: 10 to 100 µM

CCS(=O)(=O)c1nc(C(=O)N2CCc3c(ncnc3Oc3ccc(C(F)(F)F)c(F)c3)C2)c[nH]1 [O-0113, (2-(ethylsulfonyl)-1H-imidazol-4-yl)(4-(3-fluoro-4-(trifluoromethyl)phenoxy)-5,8-dihydropyrido[3,4-d]pyrimidin-7(6H)-yl)methanone]
IC50 (Homo sapiens, MSTO-211H, 24 h): 0.001 to 10 µM

CCS(=O)(=O)c1nc(C(=O)N2CCc3c(ncnc3Oc3ccc(C(F)(F)F)cc3F)C2)c[nH]1 [O-0129, (2-(ethylsulfonyl)-1H-imidazol-4-yl)(4-(2-fluoro-4-(trifluoromethyl)phenoxy)-5,8-dihydropyrido[3,4-d]pyrimidin-7(6H)-yl)methanone]
IC50: 10 to 100 µM

CS(=O)(=O)c1nc(C(=O)N2CCc3c(cccc3Nc3ccc(C(F)(F)F)cc3F)C2)c[nH]1 [O-0010, (5-((2-fluoro-4-(trifluoromethyl)phenyl)amino)-3,4-dihydroisoquinolin-2(1H)-yl)(2-(methylsulfonyl)-1H-imidazol-4-yl)methanone]
IC50 (Homo sapiens, MSTO-211H, 24 h): 0.001 to 10 µM

CS(=O)(=O)c1nc(C(=O)N2CCc3c(cccc3Oc3ccc(C(F)(F)F)c(F)c3)C2)c[nH]1 [O-0114, (5-(3-fluoro-4-(trifluoromethyl)phenoxy)-3,4-dihydroisoquinolin-2(1H)-yl)(2-(methylsulfonyl)-1H-imidazol-4-yl)methanone]
IC50 (Homo sapiens, MSTO-211H, 24 h): 0.001 to 10 µM

CS(=O)(=O)c1nc(C(=O)N2CCc3c(cccc3Nc3ccc(C(F)(F)F)c(F)c3)C2)c[nH]1 [O-0004, (5-((3-fluoro-4-(trifluoromethyl)phenyl)amino)-3,4-dihydroisoquinolin-2(1H)-yl)(2-(methylsulfonyl)-1H-imidazol-4-yl)methanone]
IC50 (Homo sapiens, MSTO-211H, 24 h): 0.001 to 10 µM

CCCS(=O)(=O)c1nc(C(=O)N2CCc3cc(Oc4ccc(C(F)(F)F)cc4)ccc3C2)c[nH]1 [O-0081, (2-(propylsulfonyl)-1H-imidazol-4-yl)(6-(4-(trifluoromethyl)phenoxy)-3,4-dihydroisoquinolin-2(1H)-yl)methanone]
IC50 (Homo sapiens, MSTO-211H, 24 h): 0.001 to 10 µM

Cn1cc(C(=O)N2CCc3c(cccc3Nc3ccc(C(F)(F)F)cn3)C2)nc1S(C)(=O)=O [O-0005, (1-methyl-2-(methylsulfonyl)-1H-imidazol-4-yl)(5-((5-(trifluoromethyl)pyridin-2-yl)amino)-3,4-dihydroisoquinolin-2(1H)-yl)methanone]
IC50 (Homo sapiens, MSTO-211H, 24 h): 0.001 to 10 µM

CS(=O)(=O)c1nc(C(=O)N2CCc3c(cccc3Oc3ccc(C(F)(F)F)cc3F)C2)c[nH]1 [O-0118, (5-(2-fluoro-4-(trifluoromethyl)phenoxy)-3,4-dihydroisoquinolin-2(1H)-yl)(2-(methylsulfonyl)-1H-imidazol-4-yl)methanone]
IC50 (Homo sapiens, MSTO-211H, 24 h): 0.001 to 10 µM

CS(=O)(=O)c1nc(C(=O)N2CCc3ccc(Nc4ccc(C(F)(F)F)cc4F)cc3C2)c[nH]1 [O-0017, (7-((2-fluoro-4-(trifluoromethyl)phenyl)amino)-3,4-dihydroisoquinolin-2(1H)-yl)(2-(methylsulfonyl)-1H-imidazol-4-yl)methanone]
IC50 (Homo sapiens, MSTO-211H, 24 h): 10 to 100 µM

CS(=O)(=O)c1nc(C(=O)N2CCc3ccc(Nc4ccc(C(F)(F)F)cc4)cc3C2)c[nH]1 [O-0013, (2-(methylsulfonyl)-1H-imidazol-4-yl)(7-((4-(trifluoromethyl)phenyl)amino)-3,4-dihydroisoquinolin-2(1H)-yl)methanone]
IC50 (Homo sapiens, MSTO-211H, 24 h): > 100 µM

O=C(c1c[nH]c(S(=O)(=O)C2CCC2)n1)N1CCc2c(cccc2Oc2ccc(C(F)(F)F)cc2)C1 [O-0125, (2-(cyclobutylsulfonyl)-1H-imidazol-4-yl)(5-(4-(trifluoromethyl)phenoxy)-3,4-dihydroisoquinolin-2(1H)-yl)methanone]
IC50 (Homo sapiens, MSTO-211H, 24 h): 0.001 to 10 µM

CS(=O)(=O)c1nc(C(=O)N2CCc3c(cccc3OC3CCC(F)(F)CC3)C2)c[nH]1 [O-0112, (5-((4,4-difluorocyclohexyl)oxy)-3,4-dihydroisoquinolin-2(1H)-yl)(2-(methylsulfonyl)-1H-imidazol-4-yl)methanone]
IC50 (Homo sapiens, MSTO-211H, 24 h): 0.001 to 10 µM

CCS(=O)(=O)c1nc(C(=O)N2CCc3c(ncnc3Oc3ccc(C(F)(F)F)cc3F)C2)c[nH]1 [O-0116, (2-(ethylsulfonyl)-1H-imidazol-4-yl)(4-(2-fluoro-4-(trifluoromethyl)phenoxy)-5,8-dihydropyrido[3,4-d]pyrimidin-7(6H)-yl)methanone]
IC50: 0.001 to 10 µM

O=C(c1c[nH]c(S(=O)(=O)C2CCC2)n1)N1CCc2c(cccc2Nc2ccc(C(F)(F)F)cc2)C1 [O-0126, (2-(cyclobutylsulfonyl)-1H-imidazol-4-yl)(5-((4-(trifluoromethyl)phenyl)amino)-3,4-dihydroisoquinolin-2(1H)-yl)methanone]
IC50 (Homo sapiens, MSTO-211H, 24 h): 0.001 to 10 µM

CCS(=O)(=O)c1nc(C(=O)N2CCc3c(cccc3Nc3ccc(C(F)(F)F)cc3)C2)c[nH]1 [O-0012, (2-(ethylsulfonyl)-1H-imidazol-4-yl)(5-((4-(trifluoromethyl)phenyl)amino)-3,4-dihydroisoquinolin-2(1H)-yl)methanone]
IC50 (Homo sapiens, MSTO-211H, 24 h): > 100 µM
